Tests used:
Details in all cases: 48 h
NOMO1 [1] = test: cell viability relative to DMSO control; higher = less cytotoxic
Method in brief: (§1)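 Library compounds in DMSO were pin-dosed into 1536-well plates (5 μl) holding NOMO1 or SEM (500 cells/well) or P12-Ichikawa (1000 cells/well) leukemia cells, across an 11-point threefold series of 47 μM to 0.79 nM. Each cell line had been adapted for at least four passages in each medium. CellTiter-Glo One luminescence was read after 48 h at 37°C. Viability is the per-plate percentage relative to DMSO wells, with cell-free wells as background.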

P12-Ichikawa [2] = test: as above
Method in brief: as §1

SEM cells [3] = test: as above
Method in brief: as §1

NOMO1 [4] = test: AUC of viability dose-response curve (% viability x log10 dose units); higher = less sensitive
Method in brief: (§2)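 Leukemia cells adapted to each medium (500 or 1000 cells/well, 1536-well plates) were exposed to library compounds in DMSO for 48 h at 37°C at 11 threefold doses, 47 μM to 0.79 nM. Luminescence by CellTiter-Glo One was normalised per plate to DMSO and cell-free wells, then fitted with a four-parameter log-logistic curve on log10 dose. Curves above full viability were scaled and quality-control failures removed before area under the curve was integrated by trapezoidal rule.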

P12-Ichikawa [5] = test: as above
Method in brief: as §2

SEM cells [6] = test: as above
Method in brief: as §2

COc1cc2ncnc(Nc3cccc(Cl)c3)c2cc1OC
cell viability [%]
Details	NOMO1 [1]	P12-Ichikawa [2]	SEM cells [3]
HPLM + 10% dialyzed FBS, 0.000781 µM	83	112	99.7
HPLM + 10% dialyzed FBS, 0.00234 µM	93.2	107	112
HPLM + 10% dialyzed FBS, 0.00702 µM	86.9	97.3	93.1
HPLM + 10% dialyzed FBS, 0.0211 µM	80.6	99.6	105
HPLM + 10% dialyzed FBS, 0.0632 µM	69.7	89.2	77.8
HPLM + 10% dialyzed FBS, 0.19 µM	59	73	62.7
HPLM + 10% dialyzed FBS, 0.569 µM	57	68.3	53.5
HPLM + 10% dialyzed FBS, 1.71 µM	41.4	44.8	30.7
HPLM + 10% dialyzed FBS, 5.12 µM	39.2	46.1	32.4
HPLM + 10% dialyzed FBS, 15.4 µM	36	45.4	31.3
HPLM + 10% dialyzed FBS, 46.1 µM	3.63	3.51	4.45
RPMI 5 mM glucose + 10% FBS, 0.000781 µM	95.7	97.7	121
RPMI 5 mM glucose + 10% FBS, 0.00234 µM	101	99.1	118
RPMI 5 mM glucose + 10% FBS, 0.00702 µM	99.3	98.5	113
RPMI 5 mM glucose + 10% FBS, 0.0211 µM	96.6	107	119
RPMI 5 mM glucose + 10% FBS, 0.0632 µM	102	87.9	76.8
RPMI 5 mM glucose + 10% FBS, 0.19 µM	85.9	66.8	50.2
RPMI 5 mM glucose + 10% FBS, 0.569 µM	82.1	69.1	50.7
RPMI 5 mM glucose + 10% FBS, 1.71 µM	57.7	32.7	19.1
RPMI 5 mM glucose + 10% FBS, 5.12 µM	48.7	25.1	7.71
RPMI 5 mM glucose + 10% FBS, 15.4 µM	39.6	22.9	6.3
RPMI 5 mM glucose + 10% FBS, 46.1 µM	34.4	19	4.71
RPMI 5 mM glucose + 10% dialyzed FBS, 0.000781 µM	100	111	98.5
RPMI 5 mM glucose + 10% dialyzed FBS, 0.00234 µM	95	102	111
RPMI 5 mM glucose + 10% dialyzed FBS, 0.00702 µM	101	109	93
RPMI 5 mM glucose + 10% dialyzed FBS, 0.0211 µM	101	106	102
RPMI 5 mM glucose + 10% dialyzed FBS, 0.0632 µM	76.2	90.8	77.7
RPMI 5 mM glucose + 10% dialyzed FBS, 0.19 µM	75.1	72.1	58.8
RPMI 5 mM glucose + 10% dialyzed FBS, 0.569 µM	72.9	69.4	59.1
RPMI 5 mM glucose + 10% dialyzed FBS, 1.71 µM	47.7	32	22.8
RPMI 5 mM glucose + 10% dialyzed FBS, 5.12 µM	45.8	25.1	19.3
RPMI 5 mM glucose + 10% dialyzed FBS, 15.4 µM	38.9	23	9.12
RPMI 5 mM glucose + 10% dialyzed FBS, 46.1 µM	37.5	15.7	3.77

AUC of viability dose-response curve
Details	NOMO1 [4]	P12-Ichikawa [5]	SEM cells [6]
HPLM + 10% dialyzed FBS	286	309	287
RPMI 5 mM glucose + 10% FBS	370	315	242
RPMI 5 mM glucose + 10% dialyzed FBS	343	305	274

CC1=C(/C=C/C(C)=C/C=C/C(C)=C/C(=O)O)C(C)(C)CCC1
cell viability [%]
Details	NOMO1 [1]	P12-Ichikawa [2]	SEM cells [3]
HPLM + 10% dialyzed FBS, 0.000781 µM	106	116	111
HPLM + 10% dialyzed FBS, 0.00234 µM	106	125	114
HPLM + 10% dialyzed FBS, 0.00702 µM	144	121	116
HPLM + 10% dialyzed FBS, 0.0211 µM	126	121	129
HPLM + 10% dialyzed FBS, 0.0632 µM	114	127	133
HPLM + 10% dialyzed FBS, 0.19 µM	127	119	123
HPLM + 10% dialyzed FBS, 0.569 µM	110	132	137
HPLM + 10% dialyzed FBS, 1.71 µM	104	126	145
HPLM + 10% dialyzed FBS, 5.12 µM	98	123	122
HPLM + 10% dialyzed FBS, 15.4 µM	84.3	111	115
HPLM + 10% dialyzed FBS, 46.1 µM	80.3	104	102
RPMI 5 mM glucose + 10% FBS, 0.000781 µM	128	–	118
RPMI 5 mM glucose + 10% FBS, 0.00234 µM	124	–	116
RPMI 5 mM glucose + 10% FBS, 0.00702 µM	114	–	139
RPMI 5 mM glucose + 10% FBS, 0.0211 µM	111	–	123
RPMI 5 mM glucose + 10% FBS, 0.0632 µM	118	–	120
RPMI 5 mM glucose + 10% FBS, 0.19 µM	122	–	123
RPMI 5 mM glucose + 10% FBS, 0.569 µM	128	–	121
RPMI 5 mM glucose + 10% FBS, 1.71 µM	110	–	155
RPMI 5 mM glucose + 10% FBS, 5.12 µM	94	–	124
RPMI 5 mM glucose + 10% FBS, 15.4 µM	99.1	–	113
RPMI 5 mM glucose + 10% FBS, 46.1 µM	68.4	–	101
RPMI 5 mM glucose + 10% dialyzed FBS, 0.000781 µM	–	–	112
RPMI 5 mM glucose + 10% dialyzed FBS, 0.00234 µM	–	–	107
RPMI 5 mM glucose + 10% dialyzed FBS, 0.00702 µM	–	–	128
RPMI 5 mM glucose + 10% dialyzed FBS, 0.0211 µM	–	–	99.8
RPMI 5 mM glucose + 10% dialyzed FBS, 0.0632 µM	–	–	110
RPMI 5 mM glucose + 10% dialyzed FBS, 0.19 µM	–	–	120
RPMI 5 mM glucose + 10% dialyzed FBS, 0.569 µM	–	–	120
RPMI 5 mM glucose + 10% dialyzed FBS, 1.71 µM	–	–	144
RPMI 5 mM glucose + 10% dialyzed FBS, 5.12 µM	–	–	102
RPMI 5 mM glucose + 10% dialyzed FBS, 15.4 µM	–	–	98.3
RPMI 5 mM glucose + 10% dialyzed FBS, 46.1 µM	–	–	84.8

AUC of viability dose-response curve
Details	NOMO1 [4]	P12-Ichikawa [5]	SEM cells [6]
HPLM + 10% dialyzed FBS	434	468	475
RPMI 5 mM glucose + 10% FBS	443	464	465
RPMI 5 mM glucose + 10% dialyzed FBS	412	467	450

C[N+]1(C)[C@@H]2CC(OC(=O)C(O)(c3cccs3)c3cccs3)C[C@H]1[C@@H]1O[C@@H]12 (stereo partly specified)
cell viability [%]
Details	NOMO1 [1]	P12-Ichikawa [2]	SEM cells [3]
HPLM + 10% dialyzed FBS, 0.000781 µM	109	98.7	94.8
HPLM + 10% dialyzed FBS, 0.00234 µM	113	105	95.5
HPLM + 10% dialyzed FBS, 0.00702 µM	117	109	107
HPLM + 10% dialyzed FBS, 0.0211 µM	126	106	102
HPLM + 10% dialyzed FBS, 0.0632 µM	107	109	113
HPLM + 10% dialyzed FBS, 0.19 µM	120	110	103
HPLM + 10% dialyzed FBS, 0.569 µM	128	109	103
HPLM + 10% dialyzed FBS, 1.71 µM	113	109	114
HPLM + 10% dialyzed FBS, 5.12 µM	105	103	106
HPLM + 10% dialyzed FBS, 15.4 µM	110	112	113
HPLM + 10% dialyzed FBS, 46.1 µM	102	102	108
RPMI 5 mM glucose + 10% FBS, 0.000781 µM	101	117	85.4
RPMI 5 mM glucose + 10% FBS, 0.00234 µM	87.9	113	104
RPMI 5 mM glucose + 10% FBS, 0.00702 µM	88.8	123	92.6
RPMI 5 mM glucose + 10% FBS, 0.0211 µM	116	111	83
RPMI 5 mM glucose + 10% FBS, 0.0632 µM	102	120	110
RPMI 5 mM glucose + 10% FBS, 0.19 µM	100	126	96.3
RPMI 5 mM glucose + 10% FBS, 0.569 µM	92.2	120	99.3
RPMI 5 mM glucose + 10% FBS, 1.71 µM	87.8	116	103
RPMI 5 mM glucose + 10% FBS, 5.12 µM	95.6	115	99.3
RPMI 5 mM glucose + 10% FBS, 15.4 µM	94.4	111	114
RPMI 5 mM glucose + 10% FBS, 46.1 µM	107	121	92.1
RPMI 5 mM glucose + 10% dialyzed FBS, 0.000781 µM	90.3	105	90.9
RPMI 5 mM glucose + 10% dialyzed FBS, 0.00234 µM	105	101	98
RPMI 5 mM glucose + 10% dialyzed FBS, 0.00702 µM	104	100	105
RPMI 5 mM glucose + 10% dialyzed FBS, 0.0211 µM	106	107	113
RPMI 5 mM glucose + 10% dialyzed FBS, 0.0632 µM	115	105	119
RPMI 5 mM glucose + 10% dialyzed FBS, 0.19 µM	94.9	111	119
RPMI 5 mM glucose + 10% dialyzed FBS, 0.569 µM	106	109	111
RPMI 5 mM glucose + 10% dialyzed FBS, 1.71 µM	97.3	109	139
RPMI 5 mM glucose + 10% dialyzed FBS, 5.12 µM	99.4	111	108
RPMI 5 mM glucose + 10% dialyzed FBS, 15.4 µM	99	113	121
RPMI 5 mM glucose + 10% dialyzed FBS, 46.1 µM	99.9	101	101

AUC of viability dose-response curve
Details	NOMO1 [4]	P12-Ichikawa [5]	SEM cells [6]
HPLM + 10% dialyzed FBS	464	471	462
RPMI 5 mM glucose + 10% FBS	466	476	460
RPMI 5 mM glucose + 10% dialyzed FBS	471	468	457
